Measurements: patent US20090076130A1, “COMPOUNDS FOR THE INHIBITION OF HISTONE DEACETYLASE” (NATUREWISE BIOTECH & MEDICALS CORPORATION, priority 2007, published 2009)

Tests used:
acetylated histone H4 = experiment: Western blotting of hyperacetylated histone H4 in C6 glioma cells; format: cell-based, rat
Protocol: Accumulation of hyperacetylated histone H4 was analyzed in the cell lysates by using Western Blotting and the antibody directed against acetylated histone H4 (Upstate). The C6 glioma cells were seeded at a density of 1×10^6 per 10 cm culture dish. After 24 hours, the cells were treated with 10 μg/mL of NBM-HD-1 or 4 mM sodium butyrate for several hours. The whole-cell lysates were prepared by using denaturing SDS sample buffer and then separated on 15% SDS-polyacrylamide gels. […] The amount of acetylated histones was hardly detectable in untreated C6 glioma cells. The amount of acetylated histone H4 of the cells treated with 4 mM sodium butyrate for 2 hours increased. Sodium butyrate was then removed from the culture medium. After 6 hours, the amount of acetylated histone H4 decreased. The accumulation of acetylated histone H4 increased in the cells treated with NBM-HD-1 for 2 hours. […] The highest histone acetylation appeared at 6 hours after the compound had been removed. […] Because NBM-HD-1 is more hydrophobic than sodium butyrate, NBM-HD-1 can be retained in the cells longer than sodium butyrate and continuously induce the acetylation of histone H4.

HDAC = HDAC Activity Assay Kit on nuclear extracts of treated C6 glioma cells; format: cell-based, rat; settings: nuclear protein of C6 cells treated 24 hours, fluorometric substrate
Protocol: The C6 glioma cells were treated with different doses of NBM-HD-1 and sodium butyrate (SB). After 24 hours, the cells were harvested to extract the nuclear proteins by NucBuster™ Protein Extraction Kit (Novagen) as described by the manufacturer's instructions. These extracts were then used in HDAC Activity Assay Kit (Calbiochem) to analyze their HDAC (histone deacetylase) inhibition activities. The HDAC fluorometric substrate, which comprises an acetylated lysine side chain, was incubated with extracted nuclear protein first. Deacetylation of the substrate sensitized the substrate, so that, in the second step, treatment with the Lysine Developer produced a fluorophore. The fluorophore can easily be analyzed by using a fluorescence plate reader. […] Inhibition of HDAC has been implicated in the induction of differentiation in cancer cells. In this experiment, a well-known compound for HDAC inhibition, sodium butyrate, was used as a positive control.

p21 = experiment: RT-PCR of p21 mRNA in MCF-7 cells; format: cell-based, human; settings: different doses, 24 hours
Protocol: The cell cycle related to p21 mRNA expression was examined by RT-PCR. The total RNAs were isolated from the treated MCF-7 cells and used in the RT reaction. cDNA (1 μl) was used as a template to amplify p21 gene by PCR. GAPDH was used as an internal control. […] In this experiment, MCF-7 cells were treated with different doses of NBM-HD-1 for 24 hours.

rat C6 glioma cells = experiment: Growth of rat C6 glioma cells (observation and cell counting); format: cell-based; settings: 2.5, 5 and 10 μg/mL, 48 hours, cell density and cell counting vs control
Protocol: The cancer cell line, rat C6 glioma cells, was cultured in Dulbecco's modified Eagle's medium (DMEM; Gibco) supplemented with penicillin G, streptomycin sulphate, 0.5 mM of L-glutamine and 10% fetal bovine serum (FBS; Gibco) at 37° C., 5% CO2 and 95% relative humidity. For all experiments, the cells were seeded at a density of 3×10^5 per well in 6-well plates. After 24 hours, the cells were treated with different concentrations of the compound NBM-HD-1 (i.e., the compound of formula III depicted herein). After 48 hours, the cells were observed and counted. According to the results shown in FIG. 1, NBM-HD-1 can arrest the growth of rat C6 glioma cells. After the C6 glioma cells were incubated with 2.5 μg/mL (see FIG. 1(A)-b), 5 μg/mL (see FIG. 1(A)-c) and 10 μg/mL (see FIG. 1(A)-d) of NBM-HD-1 for 48 hours, the density of the cells reduced dramatically in comparison with that of control (see FIG. 1(A)-a).

[1] = system: human breast MCF-7 cancer cells; experiment: Growth and morphology of breast cancer MCF-7 cells; format: cell-based
Protocol: The breast cancer MCF-7 cells, were cultured in Dulbecco's modified Eagle's medium (DMEM; Gibco) supplemented with penicillin G, streptomycin sulphate, 0.5 mM of L-glutamine and 10% fetal bovine serum (FBS; Gibco) at 37° C., 5% CO2 and 95% relative humidity. The cells were seeded at a density of 3×10^5 per well of 6-well plates. After 24 hours, the cells were treated with different concentrations of compound NBM-HD-1 and 4 mM sodium butyrate being used as the positive control. The cells were observed after 48 hours and counted after 96 hours. […] In FIG. 8(A), after the cells were incubated with 2.5 μg/mL (FIG. 8(A)-b), 5 μg/mL (FIG. 8(A)-c) and 10 μg/mL (FIG. 8(A)-d) of NBM-HD-1 for 48 hours, the density of MCF-7 cells reduced dramatically in comparison with that of the control group (FIG. 8(A)-a). The morphology of the MCF-7 cells in the experimental group changed in comparison with that in the control group. […] The results of the cell counting (FIG. 8(B)) indicate that, similar to sodium butyrate, NBM-HD-1 inhibits cell growth.
MCF-7 cancer cells were seeded at a density of 3×10^5 per well in 6-well plates. After 24 hours, the cells were treated with different concentrations of compound NBM-HD-2 and 4 mM sodium butyrate being used as the positive control. The cells were observed and counted after 72 hours. […] In FIG. 13(A), after the cells were incubated with 2.5 μg/mL (FIG. 13(A)-c), 5 μg/mL (FIG. 13(A)-d), 7.5 μg/mL (FIG. 13(A)-e) and 10 μg/mL (FIG. 13(A)-f) of NBM-HD-2 for 72 hours, the density of MCF-7 cells reduced dramatically in comparison with that of the control group (FIG. 13(A)-a). The morphology of the MCF-7 cells in the experimental group changed in comparison with that in the control group.
MCF-7 cancer cells were seeded at a density of 3×10^5 per well of 6-well plates. After 24 hours, the cells were treated with different concentrations of compound NBM-HD-3 and 4 mM sodium butyrate, which was being used as the positive control. The cells were observed and counted after 72 hours. […] In FIG. 14(A), after the cells were incubated with 2.5 μg/mL (FIG. 14(A)-c), 5 μg/mL (FIG. 14(A)-d), 7.5 μg/mL (FIG. 14(A)-e) and 10 μg/mL (FIG. 14(A)-f) of NBM-HD-3 for 72 hours, the density of MCF-7 cells reduced dramatically in comparison with that of the control group (FIG. 14(A)-a). The morphology of the MCF-7 cells in the experimental group changed in comparison with that in the control group. […] The results of the cell counting (FIG. 14(B)) indicate that, similar to sodium butyrate, NBM-HD-3 inhibits cell growth.

## COc1cc2c(c(OC)c1CCC(C)(C)O)C(=O)C[C@@H](c1ccc(OC)c(OC)c1C/C=C(\C)CCCC(C)(C)O)O2 [NBM-HD-1]
Acetylated histone H4; 10 μg/mL NBM-HD-1 or 4 mM sodium butyrate, 2 hours
  accumulation of hyperacetylated histone H4: can increase the accumulation of hyperacetylated histone H4
Acetylated histone H4; 10 μg/mL, 2 hours treatment
  time of highest histone acetylation after removal of the compound: 6 h
Acetylated histone H4; after 2 hours treatment and removal from the culture medium, up to 6 hours
  amount of acetylated histone H4 after removal of the compound: increased over time
HDAC
  HDAC activity: significantly inhibits HDAC activity
p21
  p21 mRNA expression: induced the expression of p21 in a dose-dependent manner
Rat C6 glioma cells
  growth of C6 glioma cells: can inhibit the growth of C6 glioma cells in a dose-dependent manner
[1]; 2.5, 5, 10 μg/mL, 48 hours
  morphology of MCF-7 cancer cells: change their morphology
[1]; NBM-HD-1 2.5, 5, 10 μg/mL or 4 mM sodium butyrate, observed after 48 hours, counted after 96 hours
  growth of MCF-7 cancer cells: can inhibit the growth of MCF-7 cancer cells in a dose-dependent manner
